Seven molecules from US11576979B2, “Pyrrolobenzodiazepine prodrugs and antibody conjugates thereof” (GENENTECH, INC., priority 2016, dated 2023) can be followed below.

One data set has as its system UACC-257. Description: CellTiter-Glo toxicity, 4 days (Example 9). It counts as cell-based. As to conditions: Homo sapiens, UACC-257, 96 h, 4 days of drug incubation; Table 7A. On the procedure: (§1) The toxicity of various PBD monomer disulfide prodrugs and PBD dimer disulfide prodrugs was evaluated on UACC-257, Igrov-1 and A2058 cell lines. Cells were seeded in 384-well plate and treated with drug 24 hours later. After 4 days of drug incubation, the cell viability was determined using Promega CellTiter-Glo luminescent reagent, which measures ATP level (an indirect measure of cell number). The luminescent intensity was measured on PerkinElmer Envision reader. The relative cell viability was calculated by normalizing to non-drug treatment control and was graphed using KleidaGraph software package. IC50 value was determined as the concentration to obtain 50% of the maximum cell killing.

The next data set has as its system Igrov-1. In words: CellTiter-Glo toxicity, 4 days (Example 9). As to conditions: Homo sapiens, IGROV-1, 96 h, 4 days of drug incubation; Table 7A. It counts as cell-based. On the procedure: as §1
The test system of another data set is SK-BR-3. In words: CellTiter-Glo toxicity, 3 days (Example 7). It counts as cell-based. As to conditions: Homo sapiens, SK-BR-3, 72 h. On the procedure:
The toxicity of PBD monomer disulfide prodrugs 1 to 4, PBD dimer disulfide prodrugs 1 and 4, PBD monomer control 1 and PBD dimer control 1 were evaluated against SK-BR-3 cell cultures. […] The HER2-positive breast cancer cell line, SK-BR-3, was obtained internally at Genentech after having been verified by sequence analysis. The cells were grown at 37 Celsius in DMEM+10% FBS supplemented with 2 mM L-glutamine for the duration of this assay. On the first day of the experiment, designated “Day −1”, SK-BR-3 cells were harvested from tissue culture flasks, counted, and then seeded into 96-well plates at a concentration of 7,500 cells per well. The next day, designated “Day 0”, cell culture media was removed from the cells and replaced with 100 uL of fresh media containing a serial dilution (1:3) of the compounds in Table 5 below. The plates were then returned to the 37 Celsius incubator and allowed to incubate for 3 days. On “Day 3” of the assay, the plates were removed from the incubator and allowed to equilibrate to room temperature before adding 100 uL of room-temperature CellTiter-Glo reagent (Promega). The plates were then agitated at 300 rpm for 10 minutes. The luminescence signal generated from this reaction was recorded on an Envision plate reader (Perkin-Elmer). The data were arranged in Excel (Microsoft) and graphed in Kaleidagraph (Synergy Software).

The nature of data set [1]: Disulfide cleavage by cysteine, LC/MS. It counts as physicochemical. Conditions: 15 uM compound, 0.2 mM cysteine, pH 7.0, 37 C. On the procedure:
(§2) For disulfide cleavage determination, the compounds were incubated at 15 μM with 0.2 mM cysteine or 4 mM GSH in 100 mM Tris buffer pH 7.0 containing 5% methanol at 37° C. Aliquots were taken at specified time points and the samples were analyzed by LC/MS on Sciex TripleTOF 5600 on a Hypersil Gold C18 column (100×2.1, 1.9 Thermo Scientific). The column was eluted by a gradient of buffer A (0.1% formic acid in 10 mM ammonium acetate) to buffer B (0.1% formic acid in 10 mM ammonium acetate in 90% acetonitrile), 5% B 0-0.5 min, 5-25% B 0.5-8 min, 25-75% B 8-13 min, and 75-95% B 13-13.5 min, 95% B 13.5-14.5 min, 95-5% B 14.5-15 min at 0.4 mL/min. All products were separated and characterized by LC/MS/MS in a positive ESI ion mode. All analytes had the protonated molecular MH+ as the major species with little source fragmentation. Full scan accurate mass peak areas were used to estimate relative abundance of each component.

A short description of data set [2]: Disulfide cleavage by glutathione (GSH), LC/MS. Conditions: 15 uM compound, 4 mM GSH, pH 7.0, 37 C. It counts as physicochemical. On the procedure:
as §2

In the next data set the test system is A2058. In words: CellTiter-Glo toxicity, 4 days (Example 9). Conditions: Homo sapiens, A2058, 96 h, 4 days of drug incubation; Table 7A. The data set is classed as cell-based. The method, then: as §1
A further data set deals with KPL-4. In words: CELLTITER GLO cell proliferation assay (Example 6). As to conditions: data in parenthesis = repeat evaluations. It counts as cell-based. The method, then:
(§3) The toxicity of PBD monomer disulfide prodrugs and diaphorase prodrugs were evaluated against KPL-4, WSU-DLCL2, HCT-116, HCC1395 and Jurkat cell cultures. […] KPL-4 cells further have a high expression of DTD on the order of about 839 nRPKM (where nRPKM refers to normalized reads per Kb of transcript length per million mapped read).
(§4) Potency of the disulfide and DT-diaphorase prodrugs was measured by a cell proliferation assay employing the following protocol (CELLTITER GLO™ Luminescent Cell Viability Assay, Promega Corp.). First, an aliquot of 40 ul of cell culture containing about 8000 cells of WSU-DLCL2 cells (low NQO1 gene and GSH level), 4000 cells of KPL-4 (high NQO1 gene and GSH level), HCT-116 cells, HCC1395 cells or Jurkat cells in RPMI-1640 culture medium (supplemented with 10% fetal bovine serum, 2 mM glutamine, 50 uM cystine, and 0.015 g/L L-methionine) was deposited in each well of a 384-well flat clear bottom white polystyrene tissue culture-treated microplates (Corning, N.Y.). Second, control wells were prepared containing medium with and without cells. Third, compounds with and without disulfide or DT-diaphorase prodrugs (n=3) were added to the experimental wells using ECHO acoustic liquid handling technology (Labcyte Inc, Sunnyvale, Calif.) to create a 10-point dose-response curve in triplicate with 1:3× serial dilution. Fourth, cells were cultured in a humidified incubator set at 37° C. and maintaining an atmosphere of 5% CO2. Fifth, the plates were equilibrated to room temperature for approximately 30 minutes. Sixth, a volume of CELLTITER GLO™ Reagent equal to the volume of cell culture medium present in each well was added. Seventh, the contents were mixed for 10 minutes on an orbital shaker in the dark to induce cell lysis. Eighth, the plate was incubated at room temperature for 30 minutes to stabilize the luminescence signal. Ninth, luminescence was recorded and reported in graphs as % activity where RLU (relative luminescence units) was normalized to controls (no compound control minus no cell control). Tenth, data was plotted as individual points for each replicate (n=3) for each antibody as the mean of luminescence for each set of replicates, with standard deviation error bars.

In another data set the test system is WSU-DLCL2. In words: CELLTITER GLO cell proliferation assay (Example 6). It counts as cell-based. Conditions: Homo sapiens, data in parenthesis = repeat evaluations. On the procedure: as §3, §4
For the next data set, the system named is HCT-116. Description: CELLTITER GLO cell proliferation assay (Example 6). It counts as cell-based. As to conditions: Homo sapiens, HCT-116; Table 4; read-out: IC50 potency HCT-116. The method, then:
as §3, §4

In data set [3] the test system is double strand DNA Oligos 1 and 2. In words: DNA oligo binding, LC/MS/UV. As to conditions: 100 uM compound, 100 uM DNA, 1 hour, 37 C. The method, then: For DNA binding determination, the compounds were incubated at 100 μM with 100 μM double strand DNA Oligos 1 and 2 for 1 hour in 10 mM Bis-Tris, pH 7.1 at 37° C. The single strand DNA Oligos (5′-TATAGAATCTATA-3′ and 3′-ATATCTTAGATAT-5′) were synthesized at Genentech. The samples were analyzed by LC/MS/UV (210-450 nm) on Sciex TripleTOF 5600 on a Hypersil Gold C18 column (100×2.1, 1.9 Thermo Scientific). The column was eluted at 0.4 mL/min by a gradient of buffer A (50 mM hexafluoro-isopropanol and 15 mM diisopropylethylamine) to buffer B (50% A and 50% of 1:1 methanol:acetonitrile), 5% 0-0.5 min, 5-25% B 0.5-25 min, 25-95% B 25-40 min, and to 95% B 40-42 min. The % remaining was an average of the starting DNA oligos remaining in incubations (n=2). The products were characterized by LC/MS in a negative ESI ion mode.

The mark [4] stands for this setting: KPL4, read-out: IC50 potency KPL-4, Table 4.
Where [5] appears, read: WSUDLCL2, read-out: IC50 potency WSU-DLCL2, Table 4.

Values joined by “and” are separate entries in the source; they are usually repeats but may differ in a detail not shown here. Identical values can stand only once. Like-named read-outs stand apart in the source and are kept apart here.

For `C=C1C[C@H]2C(O)N(C(=O)OCC3(SSCC)CCC3)c3cc(OCCCCCOc4cc5c(cc4OC)C(=O)N4CC(=C)C[C@H]4C(O)N5C(=O)OCC4(SSCC)CCC4)c(OC)cc3C(=O)N2C1` (stereo partly drawn) [PBD dimer disulfide prodrug 4], the IC50 in the data set on UACC-257 turned out to be 7.8 nM; in the data set on Igrov-1 it was 2.5 nM; in the data set with SK-BR-3 (read-out: SK-BR-3 IC50 (nM)), 3.09 nM.

On to `C=C1C[C@H]2C(O)N(C(=O)OCCSSCC)c3cc(OC)c(OC)cc3C(=O)N2C1` (stereo partly drawn) [PBD monomer disulfide prodrug 1], for which, in data set [1], the “% Remaining at 24 h by Cys” value is 17.9%. Also, the “% Remaining at 24 h by GSH” value in data set [2] stood at 0.5%. The IC50 with UACC-257 worked out at 276 nM; in the data set with A2058, 82.9 nM; with Igrov-1 it was 123 nM; with SK-BR-3 (read-out: SK-BR-3 IC50 (nM)) it was 331 nM; in the data set on KPL-4 (setting [4]), 324 nM; with WSU-DLCL2 (setting [5]), 274 nM.

As for `C=C1C[C@H]2C(O)N(C(=O)OCC(C)(C)SSC(C)(C)C)c3cc(OC)c(OC)cc3C(=O)N2C1` (stereo partly drawn) [PBD monomer disulfide prodrug 4], the “% Remaining at 24 h by Cys” value in data set [1] was determined as 99.9%. Moreover, the “% Remaining at 24 h by GSH” value in data set [2] amounted to 99.9%. Further, the IC50 in the data set with UACC-257 was 19200 nM; with A2058, 8110 nM; with Igrov-1, 12600 nM; in the data set with SK-BR-3 (read-out: SK-BR-3 IC50 (nM)), above 10000 nM; with KPL-4 (setting [4]), above 10000 nM; with WSU-DLCL2 (setting [5]), above 10000 nM.

As for `C=C1C[C@H]2C(O)N(C(=O)OCC3(SSCC)CCC3)c3cc(OC)c(OC)cc3C(=O)N2C1` (stereo partly drawn) [PBD monomer disulfide prodrug 3], in data set [1], the “% Remaining at 24 h by Cys” value was found to be 73.5%. In data set [2], the “% Remaining at 24 h by GSH” value is on record as 2.90%. Besides, the IC50 was 356 nM in the data set with UACC-257; 75.2 nM in the data set with A2058; 254 nM in the data set with Igrov-1; 616 nM with SK-BR-3 (read-out: SK-BR-3 IC50 (nM)); 360 nM in the data set with KPL-4 (setting [4]); 531 nM in the data set on WSU-DLCL2 (setting [5]).

As to `C=C1C[C@H]2C(O)N(C(=O)OCCSSC(C)C)c3cc(OC)c(OC)cc3C(=O)N2C1` (stereo partly drawn) [PBD monomer disulfide prodrug 2], the “% Remaining at 24 h by Cys” value in [1] was determined as 77.6%. Moreover, in data set [2], the “% Remaining at 24 h by GSH” value was 0.4% and 0%. The IC50 amounted to 1860 nM in the data set on UACC-257; 635 nM in the data set with A2058; 1870 nM in the data set with Igrov-1; 1760 nM in the data set on SK-BR-3 (read-out: SK-BR-3 IC50 (nM)); 497 nM in the data set with KPL-4 (setting [4]); 1020 nM with WSU-DLCL2 (setting [5]).

In the case of `C=C1C[C@H]2C=Nc3cc(OCCCCCOc4cc5c(cc4OC)C(=O)N4CC(=C)C[C@H]4C(O)N5C(=O)OCc4cn(C)c5c4C(=O)C(OC)=CC5=O)c(OC)cc3C(=O)N2C1` (stereo partly drawn) [PBD dimer diaphorase prodrug 3], the IC50 in the data set with KPL-4 (KPL4, Table 4, read-out: IC50 potency KPL-4) was determined as 1.87 nM; in the data set with HCT-116, 1.23 nM; with WSU-DLCL2 (WSUDLCL2, Table 4, read-out: IC50 potency WSU-DLCL2), 0.24 nM.

Take `C=C1C[C@H]2C=Nc3cc(OCCCCCOc4cc5c(cc4OC)C(=O)N4CC(=C)C[C@H]4C(O)N5C(=O)OCC4(SSCC)CCC4)c(OC)cc3C(=O)N2C1` (stereo partly drawn) [PBD dimer disulfide prodrug 1]: the IC50 in the data set on UACC-257 worked out at 2.2 nM; in the data set with Igrov-1, 0.21 nM; in the data set with SK-BR-3 (3 days, read-out: SK-BR-3 IC50) it was 2.39 nM. Further, the “% DNA oligo remaining” value in data set [3] is listed as above 99.5%.
